Key:
Human glioma cells GL07 = assay: Antitumor effect on human glioma cells (GL07) transplanted into nude mice; format: in vivo; details: GL07, oral, 20 mg/kg once a day for 9 days; for inhibition in vivo at 20 mg/kg: Mus musculus, Glioma cell, 216 h, read-out: TGIR, % (tumor growth inhibition rate)
Experimental: Antitumor Effect on Human Glioma Cells (GL07)
Human glioma cells GL07 (obtained from Central Laboratories for Experimental Animals) were transplanted into nude mice. When the tumor volume became about 100 mm^3, the mice were grouped. In this case, grouping was carried out so that each group consisted of four mice and the average tumor volume was even among the groups. The test compound was orally or intraperitoneally administered at a dose of 20 mg/kg to the test groups every day once a day for 9 days, while the medium was administered to the control group in the manner as in the test groups. The tumor growth inhibition rate (TGIR) was calculated as follows: The tumor growth inhibition rate (TGIR)=(1−Tx/Cx)×100 wherein Cx represents the volume of tumor at day x for the control group when the tumor volume at the day of the start of the administration was presumed to be 1; and Tx represents the volume of tumor for test compound administration groups.

human KDR = molecular target: T1, human KDR (Homo sapiens, UniProt P35968); assay: Inhibitory activity against KDR phosphorylation by ELISA; format: cell-based; details: NIH 3T3 cells transfected with human KDR, VEGF 100 ng/ml
T1 construct: expressed in transfected cells; host or cells: NIH 3T3 cells (Sawano A et al., Cell Growth & Differentiation 7, 213-221 (1996))
Experimental: Measurement of Inhibitory Activity Against KDR Phosphorylation by ELISA
NIH 3T3 cells (Sawano A et al., Cell Growth & Differentation, 7, 213–221 (1996), “Flt-1 but not KDR/Flk-1 tyrosine kinase is a receptor for placenta growth factor, which is related to vascular endothelial growth factor”) prepared by transfection of human KDR were cultured in a DMEM medium containing 10% fetal calf serum (purchased from GIBCO BRL) within a 5% carbon dioxide incubator until 50 to 70% confluent. The harvested cells were inoculated into wells, containing the same medium, in a collagen-type one-coat 96-well flat-bottom plate in an amount of 1.5×10^4 per well, followed by cultivation at 37° C. overnight. The medium was then replaced by a DMEM medium containing 0.1% fetal calf serum. A solution of the test compound in dimethyl sulfoxide was added to each well, and the cultivation was continued at 37° C. for additional one hr. A human recombinant vascular endothelial growth factor (hereinafter abbreviated to “VEGF”) was added to a final concentration of 100 ng/ml, and the stimulation of cells was carried out at 37° C. for 2 min. The medium was removed, the cells were washed with phosphate buffered saline (pH 7.4), and 50 μl of a solubilization buffer (20 mM HEPES (pH 7.4), 150 mM NaCl, 0.2% Triton X-100, 10% glycerol, 5 mM sodium orthovanadylate, 5 mM disodium ethylenediaminetetraacetate, and 2 mM Na4P2O7) was then added thereto. The mixture was shaken at 4° C. for 2 hr to prepare a cell extract.
Separately, phosphate buffered saline (50 μl, pH 7.4) containing […] of anti-phospho-tyrosine antibody (PY20; purchased from Transduction Laboratories) was added to a microplate for ELISA (Maxisorp; purchased from NUNC), followed by standing at 4° C. overnight to form a solid phase on the wells. After washing of the plate, 300 μl of a blocking solution was added, followed by standing at room temperature for 2 hr to perform blocking. After washing, the whole quantity of the cell extract was transferred to the wells, and the plate was then allowed to stand at 4° C. overnight. After washing, an anti-KDR antibody (purchased from Santa Cruz) was allowed to react at room temperature for one hr, and, after washing, a peroxidase-labeled anti-rabbit Ig antibody (purchased from Amersham) was allowed to react at room temperature for one hr. After washing, a chromophoric substrate for peroxidase (purchased from Sumitomo Bakelite Co., Ltd.) was added thereto to initiate a reaction. After a suitable level of color development, a reaction termination solution was added to stop the reaction, and the absorbance at 450 nm was measured with a microplate reader. The KDR phosphorylation activity for each well was determined by presuming the absorbance with the addition of VEGF and without the addition of the medicament to be 100% KDR phosphorylation activity and the absorbance without the medicament and VEGF to be 0% KDR phosphorylation activity. The concentration of the test compound was varied on several levels, the inhibition (%) of KDR phosphorylation was determined for each case, and the concentration of the test compound necessary for inhibiting 50% of KDR phosphorylation (IC50) was calculated.

T1 sequence (P35968 20-1356): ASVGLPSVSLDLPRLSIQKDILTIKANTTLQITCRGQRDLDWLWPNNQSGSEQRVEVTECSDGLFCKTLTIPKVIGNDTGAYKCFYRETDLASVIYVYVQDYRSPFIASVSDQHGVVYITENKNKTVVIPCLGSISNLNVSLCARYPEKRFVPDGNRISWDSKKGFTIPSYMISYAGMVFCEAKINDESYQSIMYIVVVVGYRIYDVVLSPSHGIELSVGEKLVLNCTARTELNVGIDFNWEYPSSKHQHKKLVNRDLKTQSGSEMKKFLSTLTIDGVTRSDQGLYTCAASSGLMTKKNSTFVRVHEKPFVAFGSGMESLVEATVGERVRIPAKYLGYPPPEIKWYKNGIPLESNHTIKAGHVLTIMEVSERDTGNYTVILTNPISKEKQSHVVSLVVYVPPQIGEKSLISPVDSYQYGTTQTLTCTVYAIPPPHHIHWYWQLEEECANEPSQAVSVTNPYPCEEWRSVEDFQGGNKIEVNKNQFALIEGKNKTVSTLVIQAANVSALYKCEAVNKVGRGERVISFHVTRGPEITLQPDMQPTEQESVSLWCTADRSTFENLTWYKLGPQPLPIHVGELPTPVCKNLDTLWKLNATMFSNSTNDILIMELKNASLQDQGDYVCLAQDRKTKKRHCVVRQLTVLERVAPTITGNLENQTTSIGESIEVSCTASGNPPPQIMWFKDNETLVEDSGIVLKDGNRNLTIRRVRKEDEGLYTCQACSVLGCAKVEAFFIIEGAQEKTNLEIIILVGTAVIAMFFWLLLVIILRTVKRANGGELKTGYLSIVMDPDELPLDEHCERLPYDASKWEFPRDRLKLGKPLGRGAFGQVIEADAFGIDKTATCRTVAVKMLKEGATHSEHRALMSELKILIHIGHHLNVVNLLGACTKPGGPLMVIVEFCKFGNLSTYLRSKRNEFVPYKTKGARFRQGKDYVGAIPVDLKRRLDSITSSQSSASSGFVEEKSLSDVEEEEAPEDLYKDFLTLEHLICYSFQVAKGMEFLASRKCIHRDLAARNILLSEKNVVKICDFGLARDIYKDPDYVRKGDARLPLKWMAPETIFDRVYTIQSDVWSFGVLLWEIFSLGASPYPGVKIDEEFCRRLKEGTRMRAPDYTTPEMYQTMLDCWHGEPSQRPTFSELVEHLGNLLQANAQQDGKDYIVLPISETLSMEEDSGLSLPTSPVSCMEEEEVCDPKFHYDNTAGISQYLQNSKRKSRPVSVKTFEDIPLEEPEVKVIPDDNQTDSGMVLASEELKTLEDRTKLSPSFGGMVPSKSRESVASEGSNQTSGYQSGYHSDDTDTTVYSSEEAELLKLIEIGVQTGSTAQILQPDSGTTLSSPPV

IC50 (human KDR) [nM] | Structure (SMILES) | inhibition in vivo at 20 mg/kg (Human glioma cells GL07) [%] | TGIR, % (tumor growth inhibition rate) (Human glioma cells GL07) [%]
> 1000 | COc1cc2c(Oc3ccc(NC(=O)N(C)C)c(Cl)c3)ncnc2cc1OCc1ccncc1 [Example 180, N′-(2-Chloro-4-{[6-methoxy-7-(4-pyridylmethoxy)-4-quinazolinyl]oxy}phenyl)-N,N-dimethylurea] | 45 | –
4.7 | CCNC(=O)Nc1cc(C)c(Oc2ccnc3cc(OCCN4CCOCC4)c(OC)cc23)cc1C [Example 175, N-Ethyl-N′-(4-{[6-methoxy-7-(2-morpholinoethoxy)-4-guinolyl]oxy}-2,5-dimethylphenyl)urea] | 17 | –
36 | CCCNC(=O)Nc1ccc(Oc2ncnc3cc(OC)c(OCCCN(C)CCO)cc23)cc1Cl [Example 140] | 21 | –
0.9 | COc1cc2c(Oc3ccc(NC(=O)Nc4ccc(F)cc4F)c(Cl)c3)ncnc2cc1OCCCN1CCN(C)CC1 [Example 164, N-[2-chloro-4-(6-methoxy-7-{[3-(4-methylpiperazino)propoxy]-4-quinazolinyl}oxy)phenyl]-N′-(2,4-difluorophenyl)urea] | – | 55
2.1 | COc1cc2c(Oc3ccc(NC(=O)Nc4ccc(F)cc4F)c(Cl)c3)ccnc2cc1OCCN(C)CCO [Example 167, N-{2-Chloro-4-[(7-{2-[(2-hydroxyethyl)-(methyl)amino]ethoxy}-6-methoxy-4-guinolyl)oxy]phenyl}-N′-(2,4-difluorophenyl)urea] | 28 | –
1.4 | COc1cc2c(Oc3ccc(NC(=O)Nc4ccc(F)cc4F)c(Cl)c3)ncnc2cc1OCCCN1CCOCC1 [Example 163, N-(2-chloro-4-{[6-methoxy-7-(3-morpholinopropoxy)-4-quinazolinyl]oxy}phenyl)-N′-(2,4-difluorophenyl)urea] | 52 | –
1 | CCCNC(=O)Nc1ccc(Oc2ccnc3cc(OCCCO)c(OC)cc23)cc1Cl [Example 147, N-(2-Chloro-4-{[7-(3-hydroxypropoxy)-6-methoxy-4-guinolyl]oxy}phenyl)-N′-propylurea] | 34 | –
15 | CCCNC(=O)Nc1ccc(Oc2ncnc3cc(OC)c(OCCCN4CCOCC4)cc23)cc1Cl [Example 139, N-(2-Chloro-4-{[7-methoxy-6-(3-morpholinopropoxy)-4-quinazolinyl]oxy}phenyl)-N′-propylurea] | 27 | –
1.6 | CCCNC(=O)Nc1ccc(Oc2ccnc3cc(OCCO)c(OC)cc23)cc1Cl [Example 149, N-(2-chloro-4-{[7-(2-hydroxyethoxy)-6-methoxy-4-quinolyl]oxy}phenyl)-N′-propylurea] | 47 | –
1.5 | CCCNC(=O)Nc1ccc(Oc2ccnc3cc(OCCCn4ccnc4)c(OC)cc23)cc1Cl [Example 154, N-[2-Chloro-4-({7-[3-(1H-1-imidazolyl)-propoxy]-6-methoxy-4-guinolyl}oxy)phenyl]-N′-propylurea] | 34 | –
40 | CCCNC(=O)Nc1ccc(Oc2ncnc3cc(OC)c(OCc4ccccn4)cc23)cc1Cl [Example 138, N-(2-Chloro-4-{[7-methoxy-6-(2-pyridylmethoxy)-4-quinazolinyl]oxy}phenyl)-N′-propylurea] | 21 | –
> 1000 | COc1cc2c(Oc3ccc(NC(=O)N(C)C)c(Cl)c3)ncnc2cc1OCCN1CCOCC1 [Example 178, N′-(2-Chloro-4-{[6-methoxy-7-(2-morpholinoethoxy)-4-quinazolinyl]oxy}phenyl)-N,N-dimethylurea] | 28 | –
14 | CCCNC(=O)Nc1ccc(Oc2ccnc3cc(OCc4ccccn4)c(OC)cc23)cc1Cl [Example 141, N-(2-Chloro-4-{[6-methoxy-7-(2-pyridylmethoxy)-4-quinolyl]oxy}phenyl)-N′-propylurea] | 28 | –
1 | CCCNC(=O)Nc1ccc(Oc2ccnc3cc(OCCn4ccnc4)c(OC)cc23)cc1Cl [Example 146, N-[2-chloro-4-(7-{[2-(1H-1-imidazolyl)ethoxy]-6-methoxy-4-quinolyl}oxy)phenyl]-N′-propylurea] | 48 | –

The next lines start with the compound.

Structure (SMILES) | IC50 (human KDR) [nM] | inhibition in vivo at 20 mg/kg (Human glioma cells GL07) [%] | TGIR, % (tumor growth inhibition rate) (Human glioma cells GL07) [%]
CCCNC(=O)Nc1ccc(Oc2ncnc3cc(OCCO)c(OC)cc23)cc1Cl [Example 122, N-(2-Chloro-4-{[7-(2-hydroxyethoxy)-6-methoxy-4-quinazolinyl]oxy}phenyl)-N′-propylurea] | 5.8 | 21 | –
CCCNC(=O)Nc1ccc(Oc2ncnc3cc(OC)c(OCCN4CCN(C)CC4)cc23)cc1Cl [Example 136, N-[2-Chloro-4-({7-methoxy-6-[2-(4-methylpiperazino)ethoxy]-4-quinazolinyl}oxy)phenyl]-N′-propylurea] | 160 | 23 | –
CCCN(CCC)C(=O)Nc1ccc(Oc2ncnc3cc(OC)c(OC)cc23)cc1Cl [Example 113, N′-{2-Chloro-4-[(6,7-dimethoxy-4-quinazolinyl)oxy]phenyl}-N,N-dipropylurea] | > 1000 | 61 | –
COc1cc2ncnc(Oc3ccc(NC(=O)N(C)c4ccc(Cl)cc4)c(Cl)c3)c2cc1OC [Example 115, N′-{2-Chloro-4-[(6,7-dimethoxy-4-quinazolinyl)oxy]phenyl}-N-(4-chlorophenyl)-N-methylurea] | > 1000 | 74 | –
CCCNC(=O)Nc1ccc(Oc2ncnc3cc(OCCCSc4nnnn4C)c(OC)cc23)cc1Cl [Example 134, N-{2-Chloro-4-[(6-methoxy-7-{3-[(1-methyl-1H-1,2,3,4-tetrazol-5-yl)thio]propoxy}-4-quinazolinyl)-oxy]phenyl}-N′-propylurea] | 5 | 29 | –
CCCNC(=O)Nc1ccc(Oc2ncnc3cc(OCCCCN4CCOCC4)c(OC)cc23)cc1Cl [Example 127, N-(2-Chloro-4-{[6-methoxy-7-(4-morpholinobutoxy)-4-quinazolinyl]oxy}phenyl)-N′-propylurea] | 1.1 | 25 | –
CCCN(C)C(=O)Nc1ccc(Oc2ncnc3cc(OC)c(OC)cc23)cc1Cl [Example 111, N′-{2-Chloro-4-[(6,7-dimethoxy-4-quinazolinyl)oxy]phenyl}-N-methyl-N-propyurea] | > 1000 | 78 | –
COc1cc2c(Oc3ccc(NC(=O)N(C)C)c(Cl)c3)ncnc2cc1OCCCCN1CCOCC1 [Example 179, N′-(2-Chloro-4-{[6-methoxy-7-(4-morpholinobutoxy)-4-quinazolinyl]oxy}phenyl)-N,N-dimethylurea] | > 1000 | 33 | –
CCCCN(C)C(=O)Nc1ccc(Oc2ncnc3cc(OC)c(OC)cc23)cc1Cl [Example 114, N-Butyl-N′-{2-chloro-4-[(6,7-dimethoxy-4-quinazolinyl)oxy]phenyl}-N-methylurea] | > 1000 | 60 | –
CCCNC(=O)Nc1ccc(Oc2ncnc3cc(OCCCO)c(OC)cc23)cc1Cl [Example 121, N-(2-Chloro-4-{(7-(3-hydroxypropoxy)-6-methoxy-4-quinazolinyl]oxy}phenyl)-N′-propylurea] | 12.5 | 22 | –
